Test results taken from ChEMBL document CHEMBL1152860, “Synthesis and antiproliferative activity of 3-amino-N-phenyl-1H-indazole-1-carboxamides” (2009).
Calls of active or inactive are those of the source. The calls are words filed in the database; no cut-off is given here.

Key:
T47D = test: Growth inhibition of human T47D cells after 48 hrs by SRB assay; assay type: functional
OVCAR-4 = test: Growth inhibition of human OVCAR4 cells after 48 hrs by SRB assay; assay type: functional; details: OVCAR-4, 48 h
BT-549 = test: Growth inhibition of human BT549 cells after 48 hrs by SRB assay; assay type: functional; details: BT-549, 48 h
SNB-19 = test: Growth inhibition of human SNB19 cells after 48 hrs by SRB assay; assay type: functional; details: SNB-19, 48 h
786-0 = test: Growth inhibition of human 786-0 cells after 48 hrs by SRB assay; assay type: functional; details: 786-0, 48 h
PC-3 = test: Growth inhibition of human PC3 cells after 48 hrs by SRB assay; assay type: functional; details: PC-3, 48 h
Malme-3M = test: Growth inhibition of human MALME-3M cells after 48 hrs by SRB assay; assay type: functional
IGROV-1 = test: Growth inhibition of human IGROV1 cells after 48 hrs by SRB assay; assay type: functional; details: IGROV-1, 48 h
LOX IMVI = test: Growth inhibition of human LOXIMVI cells after 48 hrs by SRB assay; assay type: functional
SF-539 = test: Growth inhibition of human SF539 cells after 48 hrs by SRB assay; assay type: functional; details: SF-539, 48 h
SR = test: Growth inhibition of human SR cells after 48 hrs by SRB assay; assay type: functional
RXF 393 = test: Growth inhibition of human […] cells after 48 hrs by SRB assay; assay type: functional; details: RXF 393, 48 h
SK-MEL-28 = test: Growth inhibition of human SK-MEL-28 cells after 48 hrs by SRB assay; assay type: functional; details: SK-MEL-28, 48 h
MCF7 = test: Growth inhibition of human MCF7 cells after 48 hrs by SRB assay; assay type: functional; details: MCF7, 48 h
KM12 = test: Growth inhibition of human KM12 cells after 48 hrs by SRB assay; assay type: functional; details: KM12, 48 h
K562 [1] = test: Cell cycle arrest in human K562 cells assessed as accumulation at S phase at 180 uM after 24 hrs using propidium iodide staining by flow cytometry; assay type: functional, cell-based
MDA-MB-231 = test: Growth inhibition of human MDA-MB-231 cells after 48 hrs by SRB assay; assay type: functional; details: MDA-MB-231, 48 h
NCI/ADR-RES = test: Growth inhibition of human NCI/ADR-RES cells after 48 hrs by SRB assay; assay type: functional
NCI-H226 = test: Growth inhibition of human NCI-H226 cells after 48 hrs by SRB assay; assay type: functional; details: NCI-H226, 48 h
HCC 2998 = test: Growth inhibition of human HCC2998 cells after 48 hrs by SRB assay; assay type: functional; details: HCC 2998, 48 h
MDA-MB-435 = test: Growth inhibition of human MDA-MB-435 cells after 48 hrs by SRB assay; assay type: functional; details: MDA-MB-435, 48 h
DU-145 = test: Growth inhibition of human DU145 cells after 48 hrs by SRB assay; assay type: functional; details: DU-145, 48 h
OVCAR-5 = test: Growth inhibition of human OVCAR5 cells after 48 hrs by SRB assay; assay type: functional; details: OVCAR-5, 48 h
NCI-H322M = test: Growth inhibition of human NCI-H322M cells after 48 hrs by SRB assay; assay type: functional
A498 = test: Growth inhibition of human A498 cells after 48 hrs by SRB assay; assay type: functional; details: A498, 48 h
HT-29 = test: Growth inhibition of human HT-29 cells after 48 hrs by SRB assay; assay type: functional; details: HT-29, 48 h
EKVX = test: Growth inhibition of human EKVX cells after 48 hrs by SRB assay; assay type: functional
TK-10 = test: Growth inhibition of human TK10 cells after 48 hrs by SRB assay; assay type: functional; details: TK-10, 48 h
NCI-H522 = test: Growth inhibition of human NCI-H522 cells after 48 hrs by SRB assay; assay type: functional; details: NCI-H522, 48 h
COLO 205 = test: Growth inhibition of human COLO205 cells after 48 hrs by SRB assay; assay type: functional; details: COLO 205, 48 h
UACC-62 = test: Growth inhibition of human UACC62 cells after 48 hrs by SRB assay; assay type: functional; details: UACC-62, 48 h
HOP-62 = test: Growth inhibition of human HOP62 cells after 48 hrs by SRB assay; assay type: functional; details: HOP-62, 48 h
SK-OV-3 = test: Growth inhibition of human SKOV3 cells after 48 hrs by SRB assay; assay type: functional; details: SK-OV-3, 48 h
SF-295 = test: Growth inhibition of human SF295 cells after 48 hrs by SRB assay; assay type: functional; details: SF-295, 48 h
A549 = test: Growth inhibition of human A549 cells after 48 hrs by SRB assay; assay type: functional; details: A549, 48 h
SF-268 = test: Growth inhibition of human SF268 cells after 48 hrs by SRB assay; assay type: functional; details: SF-268, 48 h
CCRF-CEM = test: Growth inhibition of human CCRF-CEM cells after 48 hrs by SRB assay; assay type: functional
UO-31 = test: Growth inhibition of human UO31 cells after 48 hrs by SRB assay; assay type: functional; details: UO-31, 48 h
NCI-H23 = test: Growth inhibition of human NCI-H23 cells after 48 hrs by SRB assay; assay type: functional; details: NCI-H23, 48 h
SK-MEL-5 = test: Growth inhibition of human SK-MEL-5 cells after 48 hrs by SRB assay; assay type: functional; details: SK-MEL-5, 48 h
OVCAR-8 = test: Growth inhibition of human OVCAR8 cells after 48 hrs by SRB assay; assay type: functional; details: OVCAR-8, 48 h
NCI-H460 = test: Growth inhibition of human NCI-H460 cells after 48 hrs by SRB assay; assay type: functional; details: NCI-H460, 48 h
SN12C = test: Growth inhibition of human SN12C cells after 48 hrs by SRB assay; assay type: functional
HCT-15 = test: Growth inhibition of human HCT15 cells after 48 hrs by SRB assay; assay type: functional; details: HCT-15, 48 h
SW-620 = test: Growth inhibition of human SW620 cells after 48 hrs by SRB assay; assay type: functional; details: SW-620, 48 h
K562 [2] = test: Cell cycle arrest in human K562 cells assessed as accumulation at G2/M phase at 180 uM after 24 hrs using propidium iodide staining by flow cytometry; assay type: functional, cell-based
SNB-75 = test: Growth inhibition of human SNB75 cells after 48 hrs by SRB assay; assay type: functional; details: SNB-75, 48 h
RPMI-8226 = test: Growth inhibition of human RPMI8226 cells after 48 hrs by SRB assay; assay type: functional; details: RPMI-8226, 48 h
[3] = Growth inhibition of human Hs 578T cells after 48 hrs by SRB assay; assay type: functional
HL-60(TB) = test: Growth inhibition of human HL-60(TB) cells after 48 hrs by SRB assay; assay type: functional; details: HL-60, 48 h
HCT-116 = test: Growth inhibition of human HCT116 cells after 48 hrs by SRB assay; assay type: functional; details: HCT-116, 48 h
HOP-92 = test: Growth inhibition of human HOP92 cells after 48 hrs by SRB assay; assay type: functional; details: HOP-92, 48 h
OVCAR-3 = test: Growth inhibition of human OVCAR-3 cells after 48 hrs by SRB assay; assay type: functional; details: OVCAR-3, 48 h
U-251 = test: Growth inhibition of human U251 cells after 48 hrs by SRB assay; assay type: functional; details: U-251, 48 h
MOLT-4 = test: Growth inhibition of human MOLT4 cells after 48 hrs by SRB assay; assay type: functional; details: MOLT-4, 48 h
CAKI-1 = test: Growth inhibition of human Caki1 cells after 48 hrs by SRB assay; assay type: functional; details: CAKI-1, 48 h
ACHN = test: Growth inhibition of human ACHN cells after 48 hrs by SRB assay; assay type: functional
K562 [4] = test: Growth inhibition of human K562 cells after 48 hrs by SRB assay; assay type: functional; details: K562, 48 h
UACC-257 = test: Growth inhibition of human UACC257 cells after 48 hrs by SRB assay; assay type: functional; details: UACC-257, 48 h
M14 = test: Growth inhibition of human M14 cells after 48 hrs by SRB assay; assay type: functional; details: M14, 48 h

## COc1ccccc1NC(=O)n1nc(N)c2ccccc21
T47D
  GI50: > 100 µM
OVCAR-4
  GI50: > 100 µM
BT-549
  GI50: 28 µM
SNB-19
  GI50: > 100 µM
786-0
  GI50: > 100 µM
PC-3
  GI50: 83.1 µM
Malme-3M
  GI50: > 100 µM
IGROV-1
  GI50: 27.3 µM
LOX IMVI
  GI50: 92.1 µM
SF-539
  GI50: 60.9 µM
SR
  GI50: 92.5 µM
RXF 393
  GI50: 45.7 µM
SK-MEL-28
  GI50: > 100 µM
MCF7
  GI50: 0.269 µM
  TGI: 64.6 µM
MCF7; read-out: LC50 (the source's name)
  CC50: > 100 µM
KM12
  GI50: 39.1 µM
K562 [1]
  Activity: Active
MDA-MB-231
  GI50: 46.1 µM
NCI/ADR-RES
  GI50: 90.7 µM
NCI-H226
  GI50: > 100 µM
HCC 2998
  GI50: 66.2 µM
MDA-MB-435
  GI50: > 100 µM
DU-145
  GI50: > 100 µM
OVCAR-5
  GI50: > 100 µM
NCI-H322M
  GI50: > 100 µM
A498
  GI50: > 100 µM
HT-29
  GI50: > 100 µM
EKVX
  GI50: 44.8 µM
TK-10
  GI50: 74.3 µM
NCI-H522
  GI50: 49.5 µM
COLO 205
  GI50: > 100 µM
UACC-62
  GI50: > 100 µM
HOP-62
  GI50: 100 µM
SK-OV-3
  GI50: > 100 µM
SF-295
  GI50: 56.6 µM
A549
  GI50: > 100 µM
SF-268
  GI50: > 100 µM
CCRF-CEM
  GI50: > 100 µM
UO-31
  GI50: > 100 µM
NCI-H23
  GI50: > 100 µM
SK-MEL-5
  GI50: > 100 µM
OVCAR-8
  GI50: > 100 µM
NCI-H460
  GI50: 78.9 µM
SN12C
  GI50: > 100 µM
HCT-15
  GI50: 73.6 µM
SW-620
  GI50: > 100 µM
K562 [2]
  Activity: Active
SNB-75
  GI50: 37 µM
RPMI-8226
  GI50: 86 µM
[3]
  GI50: 33.8 µM
HL-60(TB)
  GI50: 47.2 µM
HCT-116
  GI50: > 100 µM
HOP-92
  GI50: 30.2 µM
OVCAR-3
  GI50: > 100 µM
U-251
  GI50: 98.7 µM
MOLT-4
  GI50: 54 µM
CAKI-1
  GI50: > 100 µM
ACHN
  GI50: > 100 µM
K562 [4]
  GI50: > 100 µM
UACC-257
  GI50: > 100 µM
M14
  GI50: > 100 µM
